The values that follow come from patent US20260286308A1, “COMPOSITION CONTAINING EXTRACELLULAR MATRIX AND MATRIX-BOUND VESICLES FOR PRODUCING EXTRACELLULAR MATRIX AND PREPARATION METHOD THEREFOR” (HLB CELL CO., LTD, priority 2023, published 2026).

Where two headings read alike, the source gives them in different places.

Series [1] relates to human fibroblast/keratinocyte culture. Briefly: Total collagen produced in culture medium of co-cultured human fibroblasts/keratinocytes after administration of NAC. The series is classed as cell-based. The settings on record: for total collagen produced: 13 days, control without NAC 77.1-99.5 μg/mL, FIG. 27. The procedure:
(§1) The human keratinocyte culture obtained by culture for 7 days according to Example 3.1.2 was removed, followed by washing once with PBS. Thereafter, 3 mL of Accutase was added, and then the keratinocytes were suspended by treatment with chemical reaction for 10 minutes in an incubator at 37° C. After 40 mL of PBS was added to the Accutase solution, the mixture was centrifuged at 800 rpm and 25° C. for 5 minutes, and the supernatant was then removed. To the keratinocyte precipitate, FAD medium (DMEM/F12 (1:1)+Glutamax-I, 1% penicillin, 2 mM L-glutamine, 10 mg/L insulin, 5.5 mg/L transferrin, 5 μg/L selenite, 50 μM L-ascorbic acid 2-phosphate, 1 μM hydrocortisone, 0.02 nM triiodothyronine (T3), 10 μg/L epidermal growth factor (EGF), and 1 μM isoproterenol) supplemented with 5% fatal bovine serum was added. The human dermal fibroblasts culture obtained by culture for 7 days in Example 3.1.1 was removed, and then the keratinocytes were dispensed thereon at a density of 1-2×10^6 cells per culture dish and cultured in an incubator at 37° C. for 24 hours.
(§2) The human fibroblast/keratinocyte culture obtained by culture for 24 hours according to Example 3.1.3 was removed, followed by washing once with PBS. To 35 mL of a serum-free FAD medium (DMEM/F12 (1:1)+Glutamax-I, 1% penicillin, 2 mM L-glutamine, 10 mg/L insulin, 5.5 mg/L transferrin, 5 μg/L selenite, 50 μM L-ascorbic acid 2-phosphate, 1 μM hydrocortisone, 0.02 nM triiodothyronine (T3), 10 μg/L epidermal growth factor (EGF), and 1 μM isoproterenol), N-acetyl cysteine (NAC) was added at a concentration of 0.1 mM, 0.5 mM, 1 mM, or 5 mM, and then the cells were cultured in an incubator at 37° C. for a total of 13 days while the medium was exchanged every 2-3 days. The culture obtained by previous culture was collected.
(§3) The analysis method followed the manufacturer's instructions.

The subject of series [2] is Human fibroblasts. The settings on record: for extracellular matrix production: 0.02 nM triiodothyronine or 1 μM isoprenaline added to medium with insulin, EGF and hydrocortisone (Table 2), FIGS. 10 and 11. The protocol:
as §3
Culture media each lacking an individual factor were prepared, and then culture was performed according to Example 1.1.
Then, culture was performed according to Example 1.1.

The subject of series [3] is human fibroblast/keratinocyte culture. Nature of the series: Type IV collagen produced in culture medium of co-cultured human fibroblasts/keratinocytes after administration of vitamin C. As to conditions: serum-free FAD medium, 13 days, FIG. 28. The series is classed as cell-based. The protocol: as §1
as §2, with “vitamin C” for “N-acetyl cysteine (NAC)”, “50 μM, 100 μM,” for “0.1 mM, 0.5 mM, 1 mM,”, “200 μM,” for “5 mM,”
as §3

Series [4] deals with Human fibroblasts. Nature of the series: Laminin content in cell culture of single-cultured human fibroblasts (anti-human laminin antibody plate kit, absorbance 450 nm). As to conditions: 50 μM ascorbate-2-phosphate added to medium with insulin, EGF and hydrocortisone (Table 2); FIG. 10.
Protocol: To measure the amount of human laminin component in the extracellular matrix present in a culture obtained according to each example described below, quantitative analysis was conducted by using a commercially available analysis kit (TakaRa, MK107). The analysis method followed the manufacturer's instructions. Specifically, the culture was added onto a 96-well plate coated with an anti-human laminin antibody, followed by incubation. Thereafter, residues were washed off, and a chromogenic enzyme-conjugated specific antibody was added, followed by incubation. Then, quantitative analysis was conducted by measurement of the absorbance at 450 nm.
Human fibroblasts were seeded at a density of 3×10^5 cells per 150-mm^2 culture dish. […]
(§4) After being cultured according to Example 1.1.1, the cells were further cultured from day 8 using a serum-free/xeno-free culture medium [Dulbecco's Modified Eagle Medium: Ham's F-12 (1:1) supplemented with 100 (DMEM/F12) U/mL penicillin/streptomycin, 2 mM L-alanyl-L-glutamine, 5 μg/L selenium, 50 M ascorbate-2-phosphate, 10 mg/L insulin, 1 μM hydrocortisone, 0.02 nM triiodothyronine, 1 μM isoprenaline, and 10 μg/L epidermal growth factor] while the medium was exchanged at intervals of 2 to 3 days. […] The cell culture after collection was analyzed according to Example 3. […]
Series [5] relates to Human fibroblasts. Briefly: Total collagen content in cell culture of single-cultured human fibroblasts (Sirius Red kit, absorbance 530 nm). As to conditions: 50 μM ascorbate-2-phosphate added to medium with insulin, EGF and hydrocortisone (Table 2); FIG. 11.
Protocol: To measure the human collagen content in the extracellular matrix present in a culture obtained according to each example described below, quantitative analysis was conducted by utilizing a commercially available Sirius Red kit (Chondrex, #9062). The analysis method followed the manufacturer's instructions. Specifically, Sirius Red solution was added to the culture, followed by incubation, and the precipitated collagen was then mixed with an acidic solution and quantitatively analyzed by measurement of absorbance at 530 nm.
Human fibroblasts were seeded at a density of 3×10^5 cells per 150-mm^2 culture dish. The cells were cultured in high-glucose Dulbecco's Modified Eagle's Medium (DMEM) supplemented with 10% fetal bovine serum and 1% penicillin for 7 days while a growth medium was exchanged every 2-3 days.
as §4
The mark [6] stands for this setting: NAC at a concentration of 1 mM or higher (1 mM, 5 mM).
The mark [7] stands for this setting: factor individually removed from serum-free/xeno-free culture medium (Table 1), compared with medium containing all factors, FIGS. 8 and 9.

On to `CC(=O)N[C@@H](CS)C(=O)O` [NAC, N-acetyl cysteine], for which the total collagen produced in series [1] (0.1 mM NAC in serum-free FAD medium) was in the range of 122.1 to 137.5 µg/mL; in series [1] (0.5 mM NAC in serum-free FAD medium) it was 112.7 to 130.9 µg/mL. The “amount of collagen produced” value in series [1] (setting [6]) is reported as “reduced”. Besides, in series [1] (setting [6]), the cytotoxicity result is given as “cytotoxicity was observed”.

`O=C[C@H](O)[C@@H](O)[C@H](O)[C@H](O)CO` [glucose]: in series [2] (glucose concentration 55 mM in DMEM medium (compared with 5.5, 25 and 40 mM), FIGS. 14 and 15), the “amount of extracellular matrix produced” value is on record as “reduced”.

For the compound `C[C@]12CCC(=O)C=C1CC[C@@H]1[C@@H]2[C@@H](O)C[C@@]2(C)[C@H]1CC[C@]2(O)C(=O)CO` [hydrocortisone, reference compound], the “amount of extracellular matrix produced” value in series [2] (setting [7]) was “significantly reduced”.

With `CC(C)NCC(O)c1ccc(O)c(O)c1` (centres unmarked) [isoprenaline, reference compound], the extracellular matrix production result in series [2] was “affected”.

Consider `N[C@@H](Cc1cc(I)c(Oc2ccc(O)c(I)c2)c(I)c1)C(=O)O` [triiodothyronine, reference compound], for which, in series [2], the extracellular matrix production entry is “affected”.

Take `O=C1O[C@H]([C@@H](O)CO)C(O)=C1O` [vitamin C]: the figures for the “Type IV collagen produced” value in series [3] (50 μM vitamin C (called control group)), in series [3] (100 μM vitamin C) and in series [3] (200 μM vitamin C) were 4.17 µg/mL, 5.6 µg/mL and 5.69 µg/mL, respectively.

For ascorbate-2-phosphate, the laminin production entry in series [4] is given as “did not affect”. For the same compound, the collagen production entry in series [5] is on record as “greatly affected”.

“insulin: additive of the serum-free/xeno-free culture medium, 10 mg/L”: the “amount of extracellular matrix produced” value in series [2] (setting [7]) was “significantly reduced”.
